Results as given in patent US9730940B2, “Purine inhibitors of human phosphatidylinositol 3-kinase delta” (priority 2012, dated 2017).

Target: PI3K-alpha (Homo sapiens (Human), UniProt P42336)
Experiment: HTRF PI3K biochemical assay, alpha isoform
Conditions: ratio PI3K-alpha IC50 value/PI3K-delta IC50 value

PI3K-alpha, sequence (P42336 whole entry, looked up, canonical isoform): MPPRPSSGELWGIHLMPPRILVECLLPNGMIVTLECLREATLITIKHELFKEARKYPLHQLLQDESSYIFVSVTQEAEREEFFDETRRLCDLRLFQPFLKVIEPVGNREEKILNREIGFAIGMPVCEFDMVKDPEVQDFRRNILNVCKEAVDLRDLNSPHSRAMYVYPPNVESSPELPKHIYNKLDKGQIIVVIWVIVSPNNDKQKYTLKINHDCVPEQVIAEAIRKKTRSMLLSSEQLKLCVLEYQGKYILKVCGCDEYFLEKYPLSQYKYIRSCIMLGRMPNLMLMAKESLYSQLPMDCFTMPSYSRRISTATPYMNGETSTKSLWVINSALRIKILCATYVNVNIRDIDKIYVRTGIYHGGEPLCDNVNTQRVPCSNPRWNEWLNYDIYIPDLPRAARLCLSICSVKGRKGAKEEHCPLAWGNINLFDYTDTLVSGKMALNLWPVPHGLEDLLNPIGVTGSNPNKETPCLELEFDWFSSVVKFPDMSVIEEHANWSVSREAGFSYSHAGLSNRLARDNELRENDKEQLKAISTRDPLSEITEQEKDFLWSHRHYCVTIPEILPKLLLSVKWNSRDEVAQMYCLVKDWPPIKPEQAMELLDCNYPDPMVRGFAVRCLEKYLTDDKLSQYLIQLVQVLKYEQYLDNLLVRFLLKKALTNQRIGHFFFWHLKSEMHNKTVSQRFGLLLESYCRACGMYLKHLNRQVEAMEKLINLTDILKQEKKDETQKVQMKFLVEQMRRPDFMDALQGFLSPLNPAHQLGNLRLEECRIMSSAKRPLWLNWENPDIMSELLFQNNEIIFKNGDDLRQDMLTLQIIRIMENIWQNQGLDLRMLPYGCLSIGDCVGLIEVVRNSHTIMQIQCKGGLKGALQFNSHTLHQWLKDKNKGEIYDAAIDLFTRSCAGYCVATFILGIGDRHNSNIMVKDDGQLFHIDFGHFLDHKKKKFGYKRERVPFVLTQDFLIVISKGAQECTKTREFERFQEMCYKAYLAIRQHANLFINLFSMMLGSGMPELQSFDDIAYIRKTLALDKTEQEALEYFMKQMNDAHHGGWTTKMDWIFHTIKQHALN
PI3K-alpha, sequence (P27986 whole entry partner, looked up, canonical isoform): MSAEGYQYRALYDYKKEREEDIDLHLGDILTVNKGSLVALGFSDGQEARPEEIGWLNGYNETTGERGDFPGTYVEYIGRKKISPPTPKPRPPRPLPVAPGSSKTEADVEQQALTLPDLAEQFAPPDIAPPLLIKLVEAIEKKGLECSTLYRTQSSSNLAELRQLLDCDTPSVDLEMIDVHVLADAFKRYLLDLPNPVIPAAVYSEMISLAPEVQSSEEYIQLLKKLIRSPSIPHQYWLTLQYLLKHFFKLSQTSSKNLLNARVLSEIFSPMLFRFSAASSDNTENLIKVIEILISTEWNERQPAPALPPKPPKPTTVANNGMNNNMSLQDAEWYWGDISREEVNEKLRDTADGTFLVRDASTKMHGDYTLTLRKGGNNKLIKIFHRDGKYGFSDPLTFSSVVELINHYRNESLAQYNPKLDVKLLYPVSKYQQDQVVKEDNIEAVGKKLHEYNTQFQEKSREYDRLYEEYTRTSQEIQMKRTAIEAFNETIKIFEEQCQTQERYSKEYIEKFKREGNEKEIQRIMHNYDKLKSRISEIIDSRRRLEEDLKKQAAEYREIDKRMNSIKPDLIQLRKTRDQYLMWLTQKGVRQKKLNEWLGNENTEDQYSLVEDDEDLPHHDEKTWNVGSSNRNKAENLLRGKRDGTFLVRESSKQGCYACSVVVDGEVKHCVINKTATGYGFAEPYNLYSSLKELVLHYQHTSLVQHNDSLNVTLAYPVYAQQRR

SMILES	Relative Selectivity versus PI3Kalpha
CCn1c(-c2cnc(C)nc2)nc2c(OC3CN(Cc4ccccc4)CC3(C)C)ncnc21 (stereo not drawn) [Compound 6-6, 6-((1-benzyl-4,4-dimethylpyrrolidin-3-yl)oxy)-9-ethyl-8-(2-methylpyrimidin-5-yl)-9H-purine]	>10
CCn1ncc(-c2nc3c(O[C@H]4CCN(c5ncccn5)C4)ncnc3n2C)c1C [Compound 7-1, 8-(1-ethyl-5-methyl-1H-pyrazol-4-yl)-9-methyl-6-{[(3S)-1-pyrimidin-2-ylpyrrolidin-3-yl]oxy}-9H-purine]	>10
CCn1ncc(-c2nc3c(O[C@H]4CCN(c5ncnc6sc(C)cc56)C4)ncnc3n2C)c1C [Compound 7-2, 8-(1-ethyl-5-methyl-1H-pyrazol-4-yl)-9-methyl-6-{[(3S)-1-(6-methylthieno[2,3-d]pyrimidin-4-yl)pyrrolidin-3-yl]oxy}-9H-purine]	>10
CCn1ncc(-c2nc3c(O[C@H]4CCN(c5nccc6sccc56)C4)ncnc3n2C)c1C [Compound 7-3, 8-(1-ethyl-5-methyl-1H-pyrazol-4-yl)-9-methyl-6-{[(3S)-1-thieno[3,2-c]pyridin-4-ylpyrrolidin-3-yl]oxy}-9H-purine]	>10
CCn1ncc(-c2nc3c(O[C@H]4CCN(c5ncnc6ccsc56)C4)ncnc3n2C)c1C [Compound 7-4, 8-(1-ethyl-5-methyl-1H-pyrazol-4-yl)-9-methyl-6-{[(3S)-1-thieno[3,2-d]pyrimidin-4-ylpyrrolidin-3-yl]oxy}-9H-purine]	>10
CCn1ncc(-c2nc3c(O[C@H]4CCN(c5cc(C(F)(F)F)ccn5)C4)ncnc3n2C)c1C [Compound 7-5, 8-(1-ethyl-5-methyl-1H-pyrazol-4-yl)-9-methyl-6-({(3S)-1-[4-(trifluoromethyl)pyridin-2-yl]pyrrolidin-3-yl}oxy)-9H-purine]	>10
CCn1ncc(-c2nc3c(O[C@H]4CCN(c5nccn6cnnc56)C4)ncnc3n2C)c1C [Compound 7-6, 8-[(3S)-3-{[8-(1-ethyl-5-methyl-1H-pyrazol-4-yl)-9-methyl-9H-purin-6-yl]oxy}pyrrolidin-1-yl][1,2,4]triazolo[4,3-a]pyrazine]	>10
CCn1ncc(-c2nc3c(O[C@H]4CCN(c5ccccn5)C4)ncnc3n2C)c1C [Compound 7-7, 8-(1-ethyl-5-methyl-1H-pyrazol-4-yl)-9-methyl-6-{[(3S)-1-pyridin-2-ylpyrrolidin-3-yl]oxy}-9H-purine]	>10
CCn1ncc(-c2nc3c(O[C@H]4CCN(c5nncc6ccccc56)C4)ncnc3n2C)c1C [Compound 7-8, 1-[(3S)-3-{[8-(1-ethyl-5-methyl-1H-pyrazol-4-yl)-9-methyl-9H-purin-6-yl]oxy}pyrrolidin-1-yl]phthalazine]	>10
CCn1ncc(-c2nc3c(O[C@H]4CCN(c5cc(-n6cc(C)cn6)ncn5)C4)ncnc3n2C)c1C [Compound 7-9, 8-(1-ethyl-5-methyl-1H-pyrazol-4-yl)-9-methyl-6-({(3S)-1-[6-(4-methyl-1H-pyrazol-1-yl)pyrimidin-4-yl]pyrrolidin-3-yl}oxy)-9H-purine]	>10
CCn1ncc(-c2nc3c(O[C@H]4CCN(c5nccc(-c6ccco6)n5)C4)ncnc3n2C)c1C [Compound 7-10, 8-(1-ethyl-5-methyl-1H-pyrazol-4-yl)-6-{[(3S)-1-(4-furan-2-ylpyrimidin-2-yl)pyrrolidin-3-yl]oxy}-9-methyl-9H-purine]	>10
CCn1ncc(-c2nc3c(O[C@H]4CCN(c5cncc(C)n5)C4)ncnc3n2C)c1C [Compound 7-11, 8-(1-ethyl-5-methyl-1H-pyrazol-4-yl)-9-methyl-6-{[(3S)-1-(6-methylpyrazin-2-yl)pyrrolidin-3-yl]oxy}-9H-purine]	>10
CCn1ncc(-c2nc3c(O[C@H]4CCN(c5ncnc6sc(C)c(C)c56)C4)ncnc3n2C)c1C [Compound 7-12, 6-{[(3S)-1-(5,6-dimethylthieno[2,3-d]pyrimidin-4-yl)pyrrolidin-3-yl]oxy}-8-(1-ethyl-5-methyl-1H-pyrazol-4-yl)-9-methyl-9H-purine]	>10
CCn1ncc(-c2nc3c(O[C@H]4CCN(c5ncnc6sccc56)C4)ncnc3n2C)c1C [Compound 7-13, 8-(1-ethyl-5-methyl-1H-pyrazol-4-yl)-9-methyl-6-{[(3S)-1-thieno[2,3-d]pyrimidin-4-ylpyrrolidin-3-yl]oxy}-9H-purine]	>10
CCn1ncc(-c2nc3c(O[C@H]4CCN(c5ncnc6c5cnn6C)C4)ncnc3n2C)c1C [Compound 7-14, 4-[(3S)-3-{[8-(1-ethyl-5-methyl-1H-pyrazol-4-yl)-9-methyl-9H-purin-6-yl]oxy}pyrrolidin-1-yl]-1-methyl-1H-pyrazolo[3,4-d]pyrimidine]	>10
CCn1ncc(-c2nc3c(O[C@H]4CCN(c5cc(-n6cccn6)ncn5)C4)ncnc3n2C)c1C [Compound 7-15, 8-(1-ethyl-5-methyl-1H-pyrazol-4-yl)-9-methyl-6-({(3S)-1-[6-(1H-pyrazol-1-yl)pyrimidin-4-yl]pyrrolidin-3-yl}oxy)-9H-purine]	>10
CCn1c(-c2cnc(C)nc2)nc2c(O[C@H]3CCN(c4ccccc4C)C3)ncnc21 [Compound 7-16, 9-ethyl-6-{[(3S)-1-(2-methylphenyl)pyrrolidin-3-yl]oxy}-8-(2-methylpyrimidin-5-yl)-9H-purine]	>10

SMILES	Relative Selectivity versus PI3Kalpha
CCn1c(-c2cnc(C)nc2)nc2c(O[C@H]3CCN(c4ccccn4)C3)ncnc21 [Compound 7-17, 9-ethyl-8-(2-methylpyrimidin-5-yl)-6-{[(3S)-1-pyridin-2-ylpyrrolidin-3-yl]oxy}-9H-purine]	>10
CCn1c(-c2cnc(C)nc2)nc2c(O[C@H]3CCN(c4cc(C)ccn4)C3)ncnc21 [Compound 7-18, 9-ethyl-6-{[(3S)-1-(4-methylpyridin-2-yl)pyrrolidin-3-yl]oxy}-8-(2-methylpyrimidin-5-yl)-9H-purine]	>10
CCn1c(-c2cnc(C)nc2)nc2c(O[C@H]3CCN(c4ccccc4)C3)ncnc21 [Compound 7-19, 9-ethyl-8-(2-methylpyrimidin-5-yl)-6-{[(3S)-1-phenylpyrrolidin-3-yl]oxy}-9H-purine]	>10
CCn1c(-c2cnc(C)nc2)nc2c(O[C@H]3CCN(c4ccc(F)cc4)C3)ncnc21 [Compound 7-20, 9-ethyl-6-{[(3S)-1-(4-fluorophenyl)pyrrolidin-3-yl]oxy}-8-(2-methylpyrimidin-5-yl)-9H-purine]	>10
CCn1c(-c2cnc(C)nc2)nc2c(O[C@H]3CCN(c4cccc(F)c4)C3)ncnc21 [Compound 7-21, 9-ethyl-6-{[(3S)-1-(3-fluorophenyl)pyrrolidin-3-yl]oxy}-8-(2-methylpyrimidin-5-yl)-9H-purine]	>10
CCn1c(-c2cnc(C)nc2)nc2c(O[C@H]3CCN(c4nccs4)C3)ncnc21 [Compound 7-22, 9-ethyl-8-(2-methylpyrimidin-5-yl)-6-{[(3S)-1-(1,3-thiazol-2-yl)pyrrolidin-3-yl]oxy}-9H-purine]	>10
CCn1c(-c2cnc(C)nc2)nc2c(O[C@H]3CCN(c4cncnc4)C3)ncnc21 [Compound 7-23, 9-ethyl-8-(2-methylpyrimidin-5-yl)-6-{[(3S)-1-pyrimidin-5-ylpyrrolidin-3-yl]oxy}-9H-purine]	>10
CCn1c(-c2cnc(C)nc2)nc2c(O[C@H]3CCN(c4cccnc4)C3)ncnc21 [Compound 7-24, 9-ethyl-8-(2-methylpyrimidin-5-yl)-6-{[(3S)-1-pyridin-3-ylprrolidin-3-yl]oxy}-9H-purine]	>10
CCn1c(-c2cnc(C)nc2)nc2c(O[C@H]3CCN(c4ccc5cnoc5c4)C3)ncnc21 [Compound 7-25, 6-{[(3S)-1-(1,2-benzisoxazol-6-yl)pyrrolidin-3-yl]oxy}-9-ethyl-8-(2-methylpyrimidin-5-yl)-9H-purine]	>10
CCn1c(-c2cnc(C)nc2)nc2c(O[C@H]3CCN(c4cnccn4)C3)ncnc21 [Compound 7-26, 9-ethyl-8-(2-methylpyrimidin-5-yl)-6-{[(3S)-1-pyrazin-2-ylpyrrolidin-3-yl]oxy}-9H-purine]	>10
CCn1c(-c2cnc(C)nc2)nc2c(O[C@H]3CCCN(c4ccccn4)C3)ncnc21 [Compound 7-27, 9-ethyl-8-(2-methylpyrimidin-5-yl)-6-{[(3S)-1-pyridin-2-ylpiperidin-3-yl]oxy}-9H-purine]	>10
CCn1ncc(-c2nc3c(OC4CCC(C(=O)N5CCOCC5)C4)ncnc3n2C)c1C (stereo not drawn) [Compound 8-1]	9
CCn1ncc(-c2nc3c(OC4CCC(NC(=O)C5CCOCC5)C4)ncnc3n2C)c1C [Compound 9-3, cis-N-[(1S,3R)-3-{[8-(1-ethyl-5-methyl-1H-pyrazol-4-yl)-9-methyl-9H-purin-6-yl]oxy}cyclopentyl]tetrahydro-2H-pyran-4-carboxamide]	8
CCn1c(-c2cnc(C)nc2)nc2c(O[C@H]3C[C@@H](NC(=O)OC(C)(C)C)C3)ncnc21 [Compound 9-5, tert-butyl (cis-3-{[9-ethyl-8-(2-methylpyrimidin-5-yl)-9H-purin-6-yl]oxy}cyclobutyl)carbamate]	>10
CCn1c(-c2cnc(C)nc2)nc2c(O[C@H]3C[C@H](NC(=O)OC(C)(C)C)C3)ncnc21 [Compound 9-6, tert-butyl (trans-3-{[9-ethyl-8-(2-methylpyrimidin-5-yl)-9H-purin-6-yl]oxy}cyclobutyl)carbamate]	>10
CCC(=O)N[C@H]1CC[C@H](Oc2ncnc3c2nc(-c2cnc(C)nc2)n3CC)CC1 [Compound 9-7, N-(trans-4-{[9-ethyl-8-(2-methylpyrimidin-5-yl)-9H-purin-6-yl]oxy}cyclohexyl)propanamide]	>10
